Test results: PMC3108469 (Journal of Medicinal Chemistry, 2011)

Conditions: Sprague–Dawley rats

Row | SMILES | Vz | exposure | oral bioavailability (%F)
1 | CN(C)[C@@H]1C(O)=C(C(N)=O)C(=O)[C@@]2(O)C(O)=C3C(=O)c4c(c(F)c5ccc(CN6CCC6)cc5c4O)C[C@H]3C[C@@H]12 [19c-5, (4S,4aS,5aR,14aS)-10-(Azetidin-1-ylmethyl)-4-(dimethylamino)-7-fluoro-3,12,14,14a-tetrahydroxy-1,13-dioxo-1,4,4a,5,5a,6,13,14a-octahydropentacene-2-carboxamide] | exceptionally large | extremely poor exposure | –
2 | CN(C)c1cc(NC(=O)CNC(C)(C)C)c(O)c2c1C[C@H]1C[C@H]3[C@H](N(C)C)C(O)=C(C(N)=O)C(=O)[C@@]3(O)C(O)=C1C2=O [tigecycline, reference compound] | – | – | almost no oral bioavailability
